Measured values as given in patent US20210085623A1, “Formulation” (Medherant Limited, priority 2017, published 2021).

What was measured:
[1] = Passive release of ibuprofen from pressure sensitive adhesive patch, diffusion cells; details: Nylon membrane, patch without excipients
From the text: Prior to determination of active pharmaceutical ingredient (API) diffusion across skin mimicking membranes, a passive release of ibuprofen from the pressure sensitive adhesive must be verified. […] Such an experiment can be performed using non-rate-limiting membranes, for example porous silicone, Nylon or polytetrafluoroethylene (PTFE). In this study, Nylon was employed as the test model for passive release.
All further mentioned patches contain 10 wt % of API. Unless stated otherwise, 6 sample patches were analysed in parallel. […] Experimental conditions are listed below.
Patch components: Pressure sensitive adhesive, ibuprofen, […]. Patch thickness: 300 μm Membrane type: Nylon, pore size 0.45 μm Apparatus: diffusion cells Acceptor medium: mixture of pH 7.4 PBS/2-(2-ethoxyethoxy) ethanol (90/10 vol.) […]

[2] = Permeation of ibuprofen from patches through Strat-M membranes, diffusion cells; assay type: in vitro ADME; details: Strat-M membrane, patch without excipients
From the text: In order to determine the necessity for further modification of ibuprofen patches with excipients, permeation rates of the API were observed using Strat-M membranes. Strat-M membranes are produced by Merck Millipore as a synthetic transdermal diffusion model to avoid animal or human skin testing. There is a correlation tool on a dedicated website allowing a comparison with human skin. Permeation profiles can vary depending on a drug, but it proves that Strat-M membranes can be employed as a reliable evaluation of any transdermal system in terms of human skin penetration. It must be said that penetration profiles in the case of human skin may differ from the aforementioned membrane, but allows predicting the efficacy of patches with certain reliability.
Patches tested in this study are from the same batch as employed in release experiments and were run under the same conditions. Permeation profiles and release profiles of ibuprofen through Strat-M membranes are depicted in FIGS. 1 and 2, respectively. […]

For `CC(C)Cc1ccc(C(C)C(=O)O)cc1` (stereo not drawn) [ibuprofen], the “Total Released Amount” value ([1]; 1 h) was 227.93 μg cm^−2, the “Total Released Amount” value ([1]; 2 h) was 438.23 μg cm^−2 and the “Total Released Amount” value ([1]; 4 h) was 726.09 μg cm^−2. The “Total Released Amount” value ([1]; 6 h) was 967.49 μg cm^−2, the “Total Released Amount” value ([1]; 8 h) was 1124.13 μg cm^−2 and the “Total Released Amount” value ([1]; 10 h) was 1257.46 μg cm^−2. For the same compound, the “Total Released Amount” value ([1]; 12 h) was 1397.34 μg cm^−2, the “Total Released Amount” value ([1]; 24 h) was 1650.21 μg cm^−2 and the Flux ([2]; 1 h) was 1.29 μg cm^−2 h^−1. The “Total Amount” value ([2]; 1 h) was 1.291 μg cm^−2, the Flux ([2]; 2 h) was 2.75 μg cm^−2 h^−1 and the “Total Amount” value ([2]; 2 h) was 4.044 μg cm^−2. For the same compound, the Flux ([2]; 4 h) was 2.71 μg cm^−2 h^−1, the “Total Amount” value ([2]; 4 h) was 9.466 μg cm^−2 and the Flux ([2]; 6 h) was 3.56 μg cm^−2 h^−1. The “Total Amount” value ([2]; 6 h) was 16.595 μg cm^−2, the Flux ([2]; 8 h) was 3.91 μg cm^−2 h^−1 and the “Total Amount” value ([2]; 8 h) was 24.424 μg cm^−2. The Flux ([2]; 10 h) was 5.82 μg cm^−2 h^−1, the “Total Amount” value ([2]; 10 h) was 36.066 μg cm^−2 and the Flux ([2]; 12 h) was 6.92 μg cm^−2 h^−1. For the same compound, the “Total Amount” value ([2]; 12 h) was 49.915 μg cm^−2, the Flux ([2]; 24 h) was 4.96 μg cm^−2 h^−1 and the “Total Amount” value ([2]; 24 h) was 109.467 μg cm^−2.
